Data reported in ChEMBL document CHEMBL1201862, “PubChem BioAssay data set” (2004).
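A five-concentration, 48-hour dose response in 96-well plates underlies each endpoint, interpolated linearly between surrounding concentrations. GI50 is the concentration that inhibits growth by half.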 Active and inactive are the calls of the source. Cut-off read from the data, not from the text of the source: active = GI50 up to about 1.1 µM and inactive = higher.

Tests used:
Assay in all cases: DTP human tumour cell line panel, 48 h
ACHN = tested on: ACHN
M14 = tested on: M14
RXF 393 = tested on: RXF 393
KM12 = tested on: KM12
OVCAR-4 = tested on: OVCAR-4
MCF7 = tested on: MCF7
OVCAR-5 = tested on: OVCAR-5
DU-145 = tested on: DU-145
IGROV-1 = tested on: IGROV-1
UACC-257 = tested on: UACC-257
HCT-15 = tested on: HCT-15
SK-MEL-5 = tested on: SK-MEL-5
BT-549 = tested on: BT-549
U-251 = tested on: U-251
SR = tested on: SR
SK-MEL-2 = tested on: SK-MEL-2
UACC-62 = tested on: UACC-62
MDA-N = tested on: MDA-N
OVCAR-3 = tested on: OVCAR-3
SK-MEL-28 = tested on: SK-MEL-28
RPMI-8226 = tested on: RPMI-8226
HL-60 = tested on: HL-60
PC-3 = tested on: PC-3
HT-29 = tested on: HT-29
Hs-578T = tested on: Hs-578T
OVCAR-8 = tested on: OVCAR-8
MOLT-4 = tested on: MOLT-4
MDA-MB-435 = tested on: MDA-MB-435
MDA-MB-231 = tested on: MDA-MB-231
COLO 205 = tested on: COLO 205
SK-OV-3 = tested on: SK-OV-3
NCI-H226 = tested on: NCI-H226
SF-539 = tested on: SF-539
HOP-62 = tested on: HOP-62
SNB-19 = tested on: SNB-19
HOP-92 = tested on: HOP-92
NCI-H460 = tested on: NCI-H460
A549 = tested on: A549
SW-620 = tested on: SW-620
EKVX = tested on: EKVX
TK-10 = tested on: TK-10
SF-268 = tested on: SF-268
SN12C = tested on: SN12C
HCC 2998 = tested on: HCC 2998
T47D = tested on: T47D
CCRF-CEM = tested on: CCRF-CEM
CAKI-1 = tested on: CAKI-1
NCI-H522 = tested on: NCI-H522
786-0 = tested on: 786-0
SF-295 = tested on: SF-295
NCI/ADR-RES = tested on: NCI/ADR-RES
LOX IMVI = tested on: LOX IMVI
HCT-116 = tested on: HCT-116
NCI-H23 = tested on: NCI-H23
UO-31 = tested on: UO-31
SNB-75 = tested on: SNB-75
Malme-3M = tested on: Malme-3M
K562 = tested on: K562
A498 = tested on: A498

In the case of COc1ccc(C[C@H]2COC(=O)[C@@H]2Cc2ccc(Br)cc2)cc1OC, the GI50 (ACHN) was 15.1 µM (inactive), the GI50 (M14) was 33.3 µM (inactive) and the GI50 (RXF 393) was 20 µM (inactive). The GI50 (KM12) was 21.9 µM (inactive), the GI50 (OVCAR-4) was 19.7 µM (inactive) and the GI50 (MCF7) was 16.6 µM (inactive). The GI50 (OVCAR-5) was 23.4 µM (inactive), the GI50 (DU-145) was 16.8 µM (inactive) and the GI50 (IGROV-1) was 16.1 µM (inactive). For the same molecule, the GI50 (UACC-257) was 11.5 µM (inactive), the GI50 (HCT-15) was 17.3 µM and the GI50 (SK-MEL-5) was 5.06 µM (inactive). The GI50 (BT-549) was 17.5 µM (inactive), the GI50 (U-251) was 35 µM (inactive) and the GI50 (SR) was 20.7 µM (inactive). The GI50 (SK-MEL-2) was 19.9 µM (inactive), the GI50 (UACC-62) was 27.8 µM (inactive) and the GI50 (MDA-N) was 27.7 µM (inactive). For the same molecule, the GI50 (OVCAR-3) was 15.2 µM (inactive), the GI50 (SK-MEL-28) was 42.2 µM (inactive) and the GI50 (RPMI-8226) was 17.9 µM (inactive). For the same molecule, the GI50 (HL-60) was 20.4 µM (inactive), the GI50 (PC-3) was 15.6 µM (inactive) and the GI50 (HT-29) was 30.4 µM (inactive). The GI50 (Hs-578T) was 26.5 µM (inactive), the GI50 (OVCAR-8) was 30.7 µM (inactive) and the GI50 (MOLT-4) was 13 µM (inactive). For the same molecule, the GI50 (MDA-MB-435) was 19.5 µM (inactive), the GI50 (MDA-MB-231) was 24 µM (inactive) and the GI50 (COLO 205) was 21.2 µM (inactive). The GI50 (SK-OV-3) was 22 µM (inactive), the GI50 (NCI-H226) was 28.8 µM (inactive) and the GI50 (SF-539) was 38.2 µM (inactive). The GI50 (HOP-62) was 33.6 µM (inactive), the GI50 (SNB-19) was 26.9 µM (inactive) and the GI50 (HOP-92) was 20.2 µM (inactive). The GI50 (NCI-H460) was 33.4 µM (inactive), the GI50 (A549) was 20 µM (inactive) and the GI50 (SW-620) was 44.7 µM (inactive). For the same molecule, the GI50 (EKVX) was 7.19 µM (inactive), the GI50 (TK-10) was 28.6 µM (inactive) and the GI50 (SF-268) was 20.1 µM (inactive). For the same molecule, the GI50 (SN12C) was 29.7 µM (inactive), the GI50 (HCC 2998) was 28.3 µM (inactive) and the GI50 (T47D) was 6.08 µM (inactive). For the same molecule, the GI50 (CCRF-CEM) was 18.9 µM (inactive), the GI50 (CAKI-1) was 34 µM (inactive) and the GI50 (NCI-H522) was 13.7 µM (inactive). For the same molecule, the GI50 (786-0) was 38 µM (inactive), the GI50 (SF-295) was 14.5 µM (inactive) and the GI50 (NCI/ADR-RES) was 10.7 µM (inactive). For the same molecule, the GI50 (LOX IMVI) was 11.2 µM (inactive), the GI50 (HCT-116) was 19.1 µM (inactive) and the GI50 (NCI-H23) was 9.06 µM (inactive). For the same molecule, the GI50 (UO-31) was 6.18 µM (inactive), the GI50 (SNB-75) was 23.3 µM (inactive) and the GI50 (Malme-3M) was 25.4 µM (inactive). For the same molecule, the GI50 (K562) was 11.7 µM (inactive).

In the case of O=C1Nc2ccccc2/C1=C\c1c(Cl)nc2n1CCS2, the GI50 (ACHN) was 38.3 µM (inactive), the GI50 (M14) was 33.7 µM (inactive) and the GI50 (RXF 393) was 22.6 µM (inactive). For the same molecule, the GI50 (KM12) was 17.9 µM (inactive), the GI50 (OVCAR-4) was 31.5 µM (inactive) and the GI50 (MCF7) was 13 µM (inactive). For the same molecule, the GI50 (OVCAR-5) was 29 µM (inactive), the GI50 (DU-145) was 30.6 µM (inactive) and the GI50 (IGROV-1) was 32.7 µM (inactive). The GI50 (UACC-257) was 13.7 µM (inactive), the GI50 (HCT-15) was 22.5 µM and the GI50 (SK-MEL-5) was 14.6 µM (inactive). For the same molecule, the GI50 (BT-549) was 19.5 µM (inactive), the GI50 (U-251) was 22.1 µM (inactive) and the GI50 (SK-MEL-2) was 14.1 µM (inactive). For the same molecule, the GI50 (UACC-62) was 13.5 µM (inactive), the GI50 (MDA-N) was 15.7 µM (inactive) and the GI50 (OVCAR-3) was 20.4 µM (inactive). For the same molecule, the GI50 (SK-MEL-28) was 32.4 µM (inactive), the GI50 (RPMI-8226) was 27.7 µM (inactive) and the GI50 (HL-60) was 16.8 µM (inactive). For the same molecule, the GI50 (A498) was 18.8 µM (inactive), the GI50 (PC-3) was 24.5 µM (inactive) and the GI50 (HT-29) was 31.7 µM (inactive). For the same molecule, the GI50 (Hs-578T) was 16.6 µM (inactive), the GI50 (OVCAR-8) was 34.4 µM (inactive) and the GI50 (MOLT-4) was 30.4 µM (inactive). For the same molecule, the GI50 (MDA-MB-435) was 12.6 µM (inactive), the GI50 (MDA-MB-231) was 19 µM (inactive) and the GI50 (COLO 205) was 17.9 µM (inactive). For the same molecule, the GI50 (SK-OV-3) was 19.5 µM (inactive), the GI50 (HOP-62) was 29 µM (inactive) and the GI50 (SNB-19) was 35.6 µM (inactive). The GI50 (HOP-92) was 34 µM (inactive), the GI50 (NCI-H460) was 18.2 µM (inactive) and the GI50 (A549) was 31.3 µM (inactive). For the same molecule, the GI50 (SW-620) was 31.3 µM (inactive), the GI50 (EKVX) was 22.9 µM (inactive) and the GI50 (TK-10) was 19.7 µM (inactive). For the same molecule, the GI50 (SF-268) was 27.4 µM (inactive), the GI50 (SN12C) was 24.9 µM (inactive) and the GI50 (HCC 2998) was 17.9 µM (inactive). The GI50 (T47D) was 19.6 µM (inactive), the GI50 (CCRF-CEM) was 26.9 µM (inactive) and the GI50 (CAKI-1) was 34.8 µM (inactive). For the same molecule, the GI50 (NCI-H522) was 16.2 µM (inactive), the GI50 (786-0) was 23.4 µM (inactive) and the GI50 (SF-295) was 25.2 µM (inactive). The GI50 (NCI/ADR-RES) was 23.6 µM (inactive), the GI50 (LOX IMVI) was 31.8 µM (inactive) and the GI50 (HCT-116) was 23.6 µM (inactive). For the same molecule, the GI50 (NCI-H23) was 23.7 µM (inactive), the GI50 (UO-31) was 27 µM (inactive) and the GI50 (SNB-75) was 22.3 µM (inactive). The GI50 (Malme-3M) was 23.7 µM (inactive) and the GI50 (K562) was 21.3 µM (inactive).
